Source: publication PMC3109749 (ACS medicinal chemistry letters, 2011)

Key:
[1] = tested on: serine hydrolase superfamily (FAAH and other FP-reactive serine hydrolases); type: biochemical, human; details: for off targets in human membrane proteome (ABPP): brain membrane proteome, 10 and 100 μM
[2] = target: T1, serine hydrolase superfamily (FAAH and other FP-reactive serine hydrolases) (Homo sapiens, UniProt O00519); type: biochemical; details: brain membrane proteome; at both 10 and 100 μM
T1 sequence (O00519 1-579): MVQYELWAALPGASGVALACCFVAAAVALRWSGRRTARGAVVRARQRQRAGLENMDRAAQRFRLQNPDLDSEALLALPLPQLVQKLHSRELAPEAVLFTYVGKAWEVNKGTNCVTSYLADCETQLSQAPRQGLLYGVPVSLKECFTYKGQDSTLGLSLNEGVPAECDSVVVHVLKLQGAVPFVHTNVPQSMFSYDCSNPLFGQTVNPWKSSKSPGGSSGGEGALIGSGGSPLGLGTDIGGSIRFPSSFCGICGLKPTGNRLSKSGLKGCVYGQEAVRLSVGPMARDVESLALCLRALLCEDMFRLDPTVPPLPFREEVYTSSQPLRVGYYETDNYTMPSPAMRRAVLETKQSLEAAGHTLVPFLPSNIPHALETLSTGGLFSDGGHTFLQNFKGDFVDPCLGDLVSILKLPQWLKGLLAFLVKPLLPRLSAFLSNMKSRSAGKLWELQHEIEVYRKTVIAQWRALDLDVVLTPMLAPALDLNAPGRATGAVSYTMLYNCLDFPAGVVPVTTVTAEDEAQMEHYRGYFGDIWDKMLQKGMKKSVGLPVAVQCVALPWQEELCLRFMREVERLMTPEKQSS

[3] = target: T2, serine hydrolase superfamily (FAAH and other FP-reactive serine hydrolases) (Mus musculus, UniProt O08914); type: biochemical; details: brain membrane proteome; at both 10 and 100 μM
T2 sequence (O08914 1-579): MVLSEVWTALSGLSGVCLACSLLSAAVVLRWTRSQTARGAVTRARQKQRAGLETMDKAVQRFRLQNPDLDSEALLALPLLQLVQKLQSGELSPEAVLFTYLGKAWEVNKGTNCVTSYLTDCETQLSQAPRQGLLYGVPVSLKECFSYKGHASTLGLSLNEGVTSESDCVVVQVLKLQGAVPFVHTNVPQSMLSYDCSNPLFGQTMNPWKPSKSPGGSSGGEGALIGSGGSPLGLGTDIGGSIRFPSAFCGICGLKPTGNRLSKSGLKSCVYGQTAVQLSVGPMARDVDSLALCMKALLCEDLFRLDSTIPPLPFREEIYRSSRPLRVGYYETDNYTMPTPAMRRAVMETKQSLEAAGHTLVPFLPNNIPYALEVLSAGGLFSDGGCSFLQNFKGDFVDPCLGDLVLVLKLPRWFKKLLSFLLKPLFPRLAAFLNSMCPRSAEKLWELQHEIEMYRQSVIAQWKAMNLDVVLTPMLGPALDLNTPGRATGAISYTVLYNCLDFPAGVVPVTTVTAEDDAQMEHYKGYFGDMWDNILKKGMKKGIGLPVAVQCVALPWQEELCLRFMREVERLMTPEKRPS

[4] = tested on: serine hydrolase superfamily (FAAH and other FP-reactive serine hydrolases); type: biochemical, mouse; details: for off targets in mouse membrane proteome (ABPP): brain membrane proteome, 10 and 100 μM
[5] = tested on: rat model of inflammatory pain (CFA); details: not shown in this paper's figure; cited from earlier work
[6] = target: T3, human FAAH (hFAAH) (Homo sapiens, UniProt O00519); test: enzyme-coupled human FAAH assay, kinact/Ki; type: biochemical
T3 sequence (O00519 32-579 limits assumed): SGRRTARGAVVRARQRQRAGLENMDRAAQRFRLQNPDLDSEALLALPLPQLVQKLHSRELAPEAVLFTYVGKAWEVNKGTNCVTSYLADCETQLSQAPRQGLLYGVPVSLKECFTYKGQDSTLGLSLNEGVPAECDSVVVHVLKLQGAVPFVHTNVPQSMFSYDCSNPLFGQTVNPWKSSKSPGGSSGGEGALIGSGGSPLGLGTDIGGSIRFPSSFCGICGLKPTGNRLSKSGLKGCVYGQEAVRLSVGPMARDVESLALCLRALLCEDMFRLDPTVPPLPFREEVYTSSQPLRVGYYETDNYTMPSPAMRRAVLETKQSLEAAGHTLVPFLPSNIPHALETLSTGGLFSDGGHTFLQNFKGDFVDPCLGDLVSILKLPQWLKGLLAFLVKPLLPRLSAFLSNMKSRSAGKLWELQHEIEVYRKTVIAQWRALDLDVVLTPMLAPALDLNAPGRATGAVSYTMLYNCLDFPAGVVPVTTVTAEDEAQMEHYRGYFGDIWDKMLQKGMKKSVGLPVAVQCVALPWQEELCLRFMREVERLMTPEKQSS

[7] = target: T4, rat FAAH (rFAAH) (Rattus norvegicus, UniProt P97612); test: enzyme-coupled rat FAAH assay, kinact/Ki; type: biochemical
T4 sequence (P97612 1-579): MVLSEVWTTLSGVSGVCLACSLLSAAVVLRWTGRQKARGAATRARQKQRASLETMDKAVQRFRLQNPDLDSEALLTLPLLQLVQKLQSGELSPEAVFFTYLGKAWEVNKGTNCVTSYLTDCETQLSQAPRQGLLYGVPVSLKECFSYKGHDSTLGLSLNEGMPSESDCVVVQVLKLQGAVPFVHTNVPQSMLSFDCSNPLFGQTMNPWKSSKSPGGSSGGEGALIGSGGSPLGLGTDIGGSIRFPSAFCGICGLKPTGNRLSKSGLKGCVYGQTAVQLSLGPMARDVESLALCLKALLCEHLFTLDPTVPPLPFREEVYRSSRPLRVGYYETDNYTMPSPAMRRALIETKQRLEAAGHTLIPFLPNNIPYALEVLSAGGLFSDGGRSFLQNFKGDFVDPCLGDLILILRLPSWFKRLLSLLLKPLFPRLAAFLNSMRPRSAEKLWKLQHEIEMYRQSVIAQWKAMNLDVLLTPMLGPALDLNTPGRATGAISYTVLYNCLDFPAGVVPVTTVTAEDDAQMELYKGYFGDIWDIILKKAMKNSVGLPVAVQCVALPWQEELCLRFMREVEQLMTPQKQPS

[8] = human liver microsomal stability and binding; type: in vitro ADME; details: predicted from in vitro experiments
[9] = target: T5, FAAH (Rattus norvegicus, UniProt P97612); test: in vivo FAAH activity accompanying efficacy; details: at efficacious doses starting at 0.1 mg/kg; with elevations in anandamide and other fatty acid amides in brain and plasma
T5 sequence (P97612 1-579): T4 sequence (P97612 1-579)

[10] = soluble proteome of liver, up to 100 μM

With NC(=O)c1cccc(-c2cccc(OC(=O)NC3CCCCC3)c2)c1 [Compound 2] the “off targets in human membrane proteome (ABPP)” value [1] was “no off targets”, the “off targets among serine hydrolases in human soluble liver proteome (ABPP)” value [1, 10] was “multiple off targets” and the “inhibition of FAAH in human membrane proteome (ABPP)” value [2] was “completely inhibited FAAH”. The “inhibition of FAAH in mouse membrane proteome (ABPP)” value [3] was “completely inhibited FAAH”, the “off targets in mouse membrane proteome (ABPP)” value [4] was “no off targets” and the “off targets among serine hydrolases in mouse soluble liver proteome (ABPP)” value [4, 10] was “multiple off targets”.
For O=C(Nc1cccnc1)N1CCC(Cc2cccc(Oc3ccc(C(F)(F)F)cn3)c2)CC1 [Compound 7], the “minimum effective dose (MED), mechanical allodynia” value [5] is given as 3 mg/kg.
In the case of O=C(Nc1cccnc1)N1CCC(=Cc2cccc(Oc3ccc(C(F)(F)F)cn3)c2)CC1 [Compound 11], the “fold more potent (higher kinact/Ki) than 7 for hFAAH” value ([6]; compared to PF-3845 (7)) is reported as “approximately 2 fold” and the “fold more potent (higher kinact/Ki) than 7 for rFAAH” value ([7]; compared to PF-3845 (7)) is reported as roughly 4 fold.
In the case of O=C(Nc1cccnc1)N1CCC/C(=C\c2cccc(Oc3ccc(C(F)(F)F)cn3)c2)C1 [Compound 16], the “fold less potent than 11 for hFAAH” value ([6]; compared to 11) is reported as “approximately 19 fold”.
With O=C(Nc1cccnc1)N1CCC/C(=C/c2cccc(Oc3ccc(C(F)(F)F)cn3)c2)C1 [Compound 17] the “FAAH potency in words” value ([6]; relative to the parent analogue (9 vs 4, 10 vs 5, 12-17 vs 11)) was “activity was almost completely abolished”.
In the case of O=C(Nc1cnccn1)N1CCC(=Cc2cccc(Oc3ccc(C(F)(F)F)cn3)c2)CC1 [Compound 22], the “fold higher kinact/Ki value for hFAAH as compared to 11” value ([6]; compared to 11) is reported as 2 fold.
In the case of O=C(Nc1cccnn1)N1CCC(=Cc2cccc(Oc3ccc(C(F)(F)F)cn3)c2)CC1 [Compound 23], the “off targets in human membrane proteome (ABPP)” value [1] is reported as “no off targets”, the “inhibition of FAAH in human membrane proteome (ABPP)” value [2] is reported as “completely inhibited FAAH” and the “predicted human blood clearance” value [8] is reported as 0.6 mL/min/kg. The “inhibition of FAAH activity in vivo” value [9] was “near complete inhibition of FAAH activity”, the “inhibition of FAAH in mouse membrane proteome (ABPP)” value [3] was “completely inhibited FAAH” and the “off targets in mouse membrane proteome (ABPP)” value [4] was “no off targets”.
In the case of Cc1noc(NC(=O)N2CCC(=Cc3cccc(Oc4ccc(C(F)(F)F)cn4)c3)CC2)c1C [Compound 24], the “fold less potent for hFAAH as compared to 23” value (from here on “fold less potent for hFAAH”) [6] is reported as 5 fold and the “fold more potent for rFAAH as compared to 23” value ([7]; compared to 23) is reported as 2 fold.
For O=C(Nc1cccnn1)N1CCC(=Cc2cccc(Oc3ccc(C(F)(F)F)cc3)c2)CC1 [Compound 26], the “fold less potent for hFAAH” value [6] was 2 fold.
For O=C(Nc1cccnn1)N1CCC(=Cc2cccc(Oc3ccccc3)c2)CC1 [Compound 27], the “additional fold loss in potency on removal of the trifluoromethyl substituent” value ([6]; compared to 26) was 10 fold.
In the case of O=C(Nc1cccnn1)N1CCC(=Cc2cccc(Oc3ccc(C(F)(F)F)nc3)c2)CC1 [Compound 28], the “fold less potent for hFAAH” value [6] is reported as no more than 2 fold.
